Measured values published in ChEMBL document CHEMBL1132877, “Novel alpha-glucosidase inhibitors with a tetrachlorophthalimide skeleton” (Bioorg Med Chem Lett, 2000).

What was measured:
[1] = Inhibition of Alpha-glucosidase activity.
[2] = Compound was evaluated for binding affinity towards Alpha-glucosidase analyzed by the surface plasma resonance (SPR) method
[3] = Compound was tested for the inhibition of Alpha-glucosidase
[4] = Inhibitory effect on Alpha-glucosidase activity

With Nc1ccc2c(c1)C(=O)N(c1ccccc1)C2=O the IC50 [1] was > 500 µM.
Work on O=C1c2c(Cl)c(Cl)c(Cl)c(Cl)c2C(=O)N1Cc1ccccc1 yielded an IC50 [1] of 10.9 µM and a Ka [2] of 15000 M⁻¹.
In the case of O=C1c2c(Cl)c(Cl)c(Cl)c(Cl)c2C(=O)N1CCCc1ccccc1, the IC50 [1] is reported as 4.5 µM and the Ka [2] is reported as 33000 M⁻¹.
Work on O=C1c2c(Cl)c(Cl)c(Cl)c(Cl)c2C(=O)N1CCCCc1ccccc1 yielded an IC50 [3] of 2 µM and a Ka [2] of 22000 M⁻¹.
In the case of Nc1cccc2c1C(=O)N(c1ccccc1)C2=O, the IC50 [1] is reported as > 500 µM.
With OC[C@H]1NC[C@H](O)[C@@H](O)[C@@H]1O [DUVOGLUSTAT] the IC50 [1] was 47.6 µM and the Ka [2] was 210000 M⁻¹.
With O=C1c2cccc(O)c2C(=O)N1c1ccccc1 the IC50 [1] was > 500 µM.
For O=C1c2ccccc2C(=O)N1c1ccccc1 [N-PHENYL-PHTHALIMIDE], the IC50 [1] was > 500 µM.
Compound O=C1c2ccc([N+](=O)[O-])cc2C(=O)N1c1ccccc1 has an IC50 [1] of 23.7 µM.
O=C1c2c(Cl)c(Cl)c(Cl)c(Cl)c2C(=O)N1c1ccccc1 gave an IC50 [1] of 2.6 µM, an IC50 [4] of 17.9 µM and a Ka [2] of 140000 M⁻¹.
For O=C1c2ccccc2C(=O)N1CCc1ccccc1, the IC50 [1] was > 500 µM.
For O=C1c2ccccc2C(=O)N1Cc1ccccc1, the IC50 [1] was > 500 µM.
In the case of O=C1c2ccccc2C(=O)N1CCCc1ccccc1, the IC50 [1] is reported as > 500 µM.
O=C1c2c(Cl)c(Cl)c(Cl)c(Cl)c2C(=O)N1CCc1ccccc1 gave an IC50 [1] of 6 µM and a Ka [2] of 25000 M⁻¹.
In the case of O=C1c2ccc(O)cc2C(=O)N1c1ccccc1, the IC50 [1] is reported as > 500 µM.
With O=C1c2c(Cl)c(Cl)c(Cl)c(Cl)c2C(=O)N1CCCCCc1ccccc1 the IC50 [1] was 3.5 µM and the Ka [2] was 15000 M⁻¹.
Compound O=C1c2c(Cl)c(Cl)c(Cl)c(Cl)c2C(=O)N1CCCCCCc1ccccc1 has an IC50 [1] of 7 µM.
With O=C1c2cccc([N+](=O)[O-])c2C(=O)N1c1ccccc1 the IC50 [1] was 25.9 µM.
